Data as given in patent US10927096B2, “Ester substituted ion channel blockers and methods for use” (Nocion Therapeutics, Inc., priority 2019, dated 2021).

Biological target: T1, NaV1.7 (Homo sapiens, UniProt Q15858)
T1 construct: expressed in transfected cells; host or cells: HEK293, tetracycline-inducible
Experiment: Automated patch clamp (Qube 384), internal block of NaV1.7 in HEK293 cells
Format: cell-based
Settings: compound in internal solution, read-out: NaV1.7 Intracellular Inhibition
Protocol: NaV1.7 was expressed in HEK293 cells upon induction with tetracycline. Cells were cultured in DMEM containing 10% dialyzed Fetal Bovine Serum (VWR, Radnor, Pa.), 1% Glutamax (VWR, Radnor, Pa.), 1% Penicillin-Streptomycin (VWR, Radnor, Pa.), 100 mg/L Hygromycin (Thermo Fisher Scientific, Waltham, Mass. and 5 mg/L Blasticidin (Alfa Aesar, Haverhill, Mass.). Cells were grown and maintained at 37° C. in a humidified environment containing 10% CO2 in air. Cells were detached from the culture flask for passage and harvested using 0.05% Trypsin-EDTA (Thermo Fisher Scientific, Waltham, Mass.). To induce NaV1.7, cells were induced with tetracycline (0.1-1 μg/mL, IBI Scientific, Peosta, Iowa) the day before recording.
Before experiments, cells were washed with DPBS (VWR, Radnor, Pa.), digested with Detachin (VWR Radnor, Pa.) and then triturated 10 times in CHO Serum-Free Media (VWR Radnor, Pa.) to resuspend the cells and to break apart cell aggregates. Cells were counted and the final concentration was set at 2-5 million cells per mL.
The intracellular solution contained the following: 140 mM CsF, 1 mM/5 mM EGTA/CsOH, 10 mM HEPES, 10 mM NaCl, adjusted to pH 7.3 with CsOH, and osmolality to 320 with sucrose. The external solution contained the following: 145 mM NaCl, 4 mM KCl, 1 mM MgCl2, 2 mM CaCl2, 10 mM HEPES, 10 mM Glucose, adjusted to pH 7.4 with CsOH and osmolality to 305 with sucrose. All chemicals are from Sigma-Aldrich, St. Louis, Mo. In order to test the degree of internal block by test compounds, the compounds were dissolved in internal solution at the indicated test concentration. […] In order to test the degree of external block by test compounds the compounds were dissolved in external solution at the indicated test concentration.
Automated Patch Clamps were performed on Qube 384 (Sophion Bioscience, Woburn Mass.) with multihole Qchips at a temperature setting of 22 degrees. The whole cells configuration was formed with default Qube seal and break-in parameter. The membrane potential was held at −100 mV before the voltage protocol began. Two voltage protocols were followed.
Step 1: Cells were held at −100 mV with a depolarized pulse to −20 mV for 10 ms, the interval was set at 5 s. Currents were corrected by default leak subtraction from every pulse. The duration was set at 5 mins.
Step 2: Cells were held at −100 mV with a depolarized pulse to −20 mV for 10 ms. The frequency was 5 Hz. Currents were corrected by leak subtraction calculated before step 2. The duration was set at 4 mins.
After Step 2, the Qchip was removed from the recording chamber. The internal solution was changed with solutions containing test compounds. Qchips were held at −100 mV without pulsing after being replaced in the recording chamber. The total solution switching time was 8 minutes. After the internal solution exchange, Cells were recorded and step 2 for repeated for 10 minutes.
Data analysis was performed by Sophion Analyzer. Cells were filtered with minimum 50 MOhm seal resistance and minimum 5 nA starting current. The rundown of the currents was corrected with control cells (Non-Drug). The remaining was calculated by averaging last 3 points in the end of experiments. The base line was calculated as the average of last 3 points of Step 2. IC50 curves were plotted with DR-plots/Hill function (a dose-response plot with a Hill fit).
Representative examples of the invention were tested for intracellular inhibition of NaV 1.7 in the automated patch clamp assay. Activity Range is reported as IC50: “++++” (<1 μM), “+++” (1-3 μM), “++” (3-10 μM) or “+” (10-30 μM).

T1 sequence (Q15858 whole entry): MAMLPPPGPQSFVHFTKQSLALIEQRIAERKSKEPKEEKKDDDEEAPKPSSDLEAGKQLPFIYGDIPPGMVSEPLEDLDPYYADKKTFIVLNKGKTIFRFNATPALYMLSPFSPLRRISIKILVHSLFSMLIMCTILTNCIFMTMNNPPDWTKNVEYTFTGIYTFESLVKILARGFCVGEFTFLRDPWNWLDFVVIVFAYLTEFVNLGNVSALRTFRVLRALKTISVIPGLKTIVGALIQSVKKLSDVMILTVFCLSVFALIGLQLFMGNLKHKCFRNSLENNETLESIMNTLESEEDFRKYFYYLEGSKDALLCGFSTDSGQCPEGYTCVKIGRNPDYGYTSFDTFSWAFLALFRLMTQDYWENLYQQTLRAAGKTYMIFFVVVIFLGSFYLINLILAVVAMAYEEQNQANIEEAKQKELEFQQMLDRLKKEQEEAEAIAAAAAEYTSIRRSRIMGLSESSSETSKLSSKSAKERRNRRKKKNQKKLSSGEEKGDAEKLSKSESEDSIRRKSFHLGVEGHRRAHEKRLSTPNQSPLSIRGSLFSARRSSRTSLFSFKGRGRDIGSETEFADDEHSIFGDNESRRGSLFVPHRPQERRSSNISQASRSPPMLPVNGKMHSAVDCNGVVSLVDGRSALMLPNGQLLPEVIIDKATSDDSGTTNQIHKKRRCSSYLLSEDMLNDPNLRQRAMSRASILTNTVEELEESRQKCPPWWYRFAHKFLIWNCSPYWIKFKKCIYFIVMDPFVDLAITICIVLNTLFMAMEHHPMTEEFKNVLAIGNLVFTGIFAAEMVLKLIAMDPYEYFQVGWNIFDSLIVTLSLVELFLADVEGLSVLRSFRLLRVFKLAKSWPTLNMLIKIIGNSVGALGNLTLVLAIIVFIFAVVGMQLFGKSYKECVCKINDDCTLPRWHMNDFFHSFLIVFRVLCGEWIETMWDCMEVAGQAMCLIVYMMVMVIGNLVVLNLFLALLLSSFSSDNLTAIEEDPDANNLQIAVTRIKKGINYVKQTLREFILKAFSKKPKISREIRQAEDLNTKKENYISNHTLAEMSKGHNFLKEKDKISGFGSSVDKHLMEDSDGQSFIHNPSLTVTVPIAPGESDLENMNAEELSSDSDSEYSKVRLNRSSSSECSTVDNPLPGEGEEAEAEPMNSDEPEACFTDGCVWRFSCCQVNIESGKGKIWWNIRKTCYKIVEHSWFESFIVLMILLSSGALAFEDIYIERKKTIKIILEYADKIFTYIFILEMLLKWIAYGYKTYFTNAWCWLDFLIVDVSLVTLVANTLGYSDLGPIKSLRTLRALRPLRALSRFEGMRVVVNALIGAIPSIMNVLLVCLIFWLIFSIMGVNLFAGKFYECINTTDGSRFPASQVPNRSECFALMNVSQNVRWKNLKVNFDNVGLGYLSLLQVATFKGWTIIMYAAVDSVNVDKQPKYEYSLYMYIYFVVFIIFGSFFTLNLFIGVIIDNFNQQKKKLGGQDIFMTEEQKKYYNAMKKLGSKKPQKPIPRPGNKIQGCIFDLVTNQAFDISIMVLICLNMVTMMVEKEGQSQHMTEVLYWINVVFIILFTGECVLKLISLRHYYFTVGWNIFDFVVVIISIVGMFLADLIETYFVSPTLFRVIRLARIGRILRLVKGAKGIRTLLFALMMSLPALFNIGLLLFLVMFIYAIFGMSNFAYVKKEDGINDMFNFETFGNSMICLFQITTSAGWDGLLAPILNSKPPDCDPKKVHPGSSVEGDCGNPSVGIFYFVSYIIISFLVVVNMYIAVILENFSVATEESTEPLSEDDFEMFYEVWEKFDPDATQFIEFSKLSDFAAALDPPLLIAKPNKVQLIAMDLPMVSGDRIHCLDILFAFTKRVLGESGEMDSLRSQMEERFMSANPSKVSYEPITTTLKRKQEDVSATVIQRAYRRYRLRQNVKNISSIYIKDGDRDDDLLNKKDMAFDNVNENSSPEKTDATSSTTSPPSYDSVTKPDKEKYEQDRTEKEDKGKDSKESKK

IC50 | SMILES
< 1 µM | COC(=O)c1cccc(C)c1NC(=O)C[N+]1(Cc2ccccc2)CCCC(C(=O)N(C)C)C1 (mixture of isomers) [Compound 40]
< 1 µM | CC[N+]1(CC(=O)Nc2c(C)cccc2C(=O)OC)CCCC(c2ccccc2)C1 (mixture of isomers) [Compound 65]
< 1 µM | COC(=O)c1cccc(C)c1NC(=O)C[N+]1(Cc2ccccc2)CCCCCC1 [Compound 1]
< 1 µM | CCOC(=O)c1cccc(C)c1NC(=O)C[N+]1(Cc2ccccc2)CCCCCC1 [Compound 2]
< 1 µM | CCOC(=O)c1cccc(C)c1NC(=O)C[N+]1(Cc2ccccc2)CCCCC1.[Br-] [Compound 4]
1 to 3 µM | COC(=O)c1cccc(C)c1NC(=O)C[N+]1(Cc2ccccc2)CCCC1 [Compound 5]
1 to 3 µM | CCCOC(=O)C1CCC[N+](CC)(CC(=O)Nc2c(C)cccc2C(=O)OC)C1.[I-] (stereo not shown) [Compound 26]
< 1 µM | COC(=O)c1cccc(C)c1NC(=O)C[N+]1(Cc2ccccc2)CCCC(C(=O)NC(C)C)C1.[Br-] (stereo not shown) [Compound 32]
3 to 10 µM | CC[N+]1(CC(=O)Nc2c(C)cccc2C(=O)OC)CCCC(C(N)=O)C1.[I-] (stereo not shown) [Compound 55]
1 to 3 µM | CC[N+]1(CC(=O)Nc2c(C)cccc2C(=O)OC)CCCC(C(=O)NC2CCCCC2)C1.[I-] (stereo not shown) [Compound 56]
1 to 3 µM | CCC(C(=O)Nc1c(C)cccc1C(=O)OC)[N+]1(Cc2ccccc2)CCCCC1 (stereo not shown) [Compound 57]
3 to 10 µM | CCc1cccc(C[N+]2(C(CC)C(=O)Nc3c(C)cccc3C(=O)OC)CCCCC2)c1.O=C[O-] (stereo not shown) [Compound 58]
< 1 µM | CCOC(=O)C[N+]1(CC(=O)Nc2c(C)cccc2C(=O)OC)CCCC(c2ccccc2)C1.O=C([O-])C(F)(F)F (stereo not shown) [Compound 63]
1 to 3 µM | Cc1cccc(C(=O)OC(C)(C)C)c1NC(=O)C[n+]1cccn1C1CCCCC1.[Br-] [Compound 72]

The remaining lines, values behind:

SMILES | IC50
CCCCOC(=O)C1CCC[N+](CC(=O)Nc2c(C)cccc2C(=O)OC)(Cc2ccccc2)C1.[Br-] (mixture of isomers) [Compound 14] | 1 to 3 µM
CCCCOC(=O)C1CCC[N+](CC)(CC(=O)Nc2c(C)cccc2C(=O)OC)C1.[I-] (mixture of isomers) [Compound 15] | 1 to 3 µM
CCOC(=O)C1CCC[N+](CC(=O)Nc2c(C)cccc2C(=O)OC)(Cc2ccccc2)C1 (mixture of isomers) [Compound 16] | < 1 µM
CC[N+]1(CC(=O)Nc2c(C)cccc2C(=O)OC)CCCC(C(=O)OC2CCCCC2)C1 (mixture of isomers) [Compound 27] | 1 to 3 µM
CCCNC(=O)C1CCC[N+](CC(=O)Nc2c(C)cccc2C(=O)OC)(Cc2ccccc2)C1 (mixture of isomers) [Compound 28] | < 1 µM
CNC(=O)C1CCC[N+](CC(=O)Nc2c(C)cccc2C(=O)OC)(Cc2ccccc2)C1 (mixture of isomers) [Compound 31] | < 1 µM
COC(=O)c1cccc(C)c1NC(=O)C[N+]1(Cc2ccccc2)CCCC(C(=O)N2CCCC2)C1 (mixture of isomers) [Compound 43] | 1 to 3 µM
CC[N+]1(CC(=O)Nc2c(C)cccc2C(=O)OC)CCCC(C(=O)N2CCCC2)C1 (mixture of isomers) [Compound 54] | 1 to 3 µM
CNC(=O)C[N+]1(CC(=O)Nc2c(C)cccc2C(=O)OC)CCCC(c2ccccc2)C1.[Br-] (mixture of isomers) [Compound 59] | < 1 µM
COC(=O)c1cccc(C)c1NC(=O)C[N+]1(CC(N)=O)CCCC(c2ccccc2)C1 (mixture of isomers) [Compound 61] | < 1 µM
CCN(CC)C(=O)C[N+]1(CC(=O)Nc2c(C)cccc2C(=O)OC)CCCC(c2ccccc2)C1 (mixture of isomers) [Compound 62] | 1 to 3 µM
COC(=O)C[N+]1(CC(=O)Nc2c(C)cccc2C(=O)OC)CCCC(c2ccccc2)C1 (mixture of isomers) [Compound 64] | < 1 µM
COC(=O)c1cccc(C)c1NC(=O)C[N+]1(Cc2ccccc2)CCCCC1.[Br-] [Compound 3] | 1 to 3 µM
CCCOC(=O)c1cccc(C)c1NC(=O)C[N+]1(Cc2ccccc2)CCCCCC1.[Br-] [Compound 6] | 1 to 3 µM
Cc1cccc(C(=O)OC(C)C)c1NC(=O)C[N+]1(Cc2ccccc2)CCCCCC1.[Br-] [Compound 7] | < 1 µM
CCOC(=O)c1cccc(C)c1NC(=O)C[N+]1(Cc2ccccc2)CCCC1.[Br-] [Compound 9] | < 1 µM
CC[N+]1(CC(=O)Nc2c(C)cccc2C(=O)OC)CCCC(C(=O)OCC(C)C)C1.[I-] (stereo not shown) [Compound 23] | < 1 µM
COC(=O)c1cccc(C)c1NC(=O)C[N+]1(Cc2ccccc2)CCCC(C(N)=O)C1.[Br-] (stereo not shown) [Compound 30] | < 1 µM
CCNC(=O)C1CCC[N+](CC(=O)Nc2c(C)cccc2C(=O)OC)(Cc2ccccc2)C1.O=C([O-])C(F)(F)F (stereo not shown) [Compound 33] | < 1 µM
COC(=O)c1cccc(C)c1NC(=O)C[N+]1(Cc2ccccc2)CCCC(C(=O)N2CCCCCC2)C1.[Br-] (stereo not shown) [Compound 34] | 1 to 3 µM
COC(=O)c1cccc(C)c1NC(=O)C[N+]1(Cc2ccccc2)CCCC(C(=O)NCC(C)C)C1.[Br-] (stereo not shown) [Compound 36] | 1 to 3 µM
COC(=O)c1cccc(C)c1NC(=O)C[N+]1(Cc2ccccc2)CCCC(C(=O)NC2CCCC2)C1.[Br-] (stereo not shown) [Compound 41] | 1 to 3 µM
CC[N+]1(CC(=O)Nc2c(C)cccc2C(=O)OC)CCCC(C(=O)N2CCCCC2)C1.[I-] (stereo not shown) [Compound 45] | < 1 µM
CC[N+]1(CC(=O)Nc2c(C)cccc2C(=O)OC)CCCC(C(=O)NC)C1.[I-] (stereo not shown) [Compound 46] | 3 to 10 µM
COC(=O)c1cccc(C)c1NC(=O)C[N+]1(CC(=O)N(C)C)CCCC(c2ccccc2)C1.O=C([O-])C(F)(F)F (stereo not shown) [Compound 60] | < 1 µM
COC(=O)c1cccc(C)c1NC(=O)C[n+]1cccc(-c2ccccc2)c1.[Br-] [Compound 66] | < 1 µM
CCOC(=O)c1cccc(C)c1NC(=O)C[n+]1cccc(-c2ccccc2)c1 [Compound 67] | < 1 µM
COC(=O)c1cccc(C)c1NC(=O)C[n+]1cccn1C1CCCCC1.[Br-] [Compound 69] | < 1 µM
Cc1cccc(C(=O)OC(C)(C)C)c1NC(=O)C[n+]1cccc(-c2ccccc2)c1.[Br-] [Compound 71] | 1 to 3 µM
